{"source": "patent US10787413B2", "about": "“Derivatives of curcuminoids and use thereof as an anticancer agent” (CHINA MEDICAL UNIVERSITY, priority 2016, dated 2020)", "key": {"[1]": {"tested_on": "MDA-MB-453", "assay": "Cell viability, MDA-MB-453 breast cancer cells", "type": "cell-based", "details": "Homo sapiens; MDA-MB-453 (Her-2+), treated for 24 h", "description": "Cell viability was evaluated by measuring the reduction in MTT to yield blue formazan. Cells were cultured in 96-well plates, allowed to attach overnight, and then treated with compounds. After treatment, MTT solution (1 mg/ml) was added to each well, and plates were incubated for another 4 h. Medium were removed, blue formazan was dissolved in DMSO, and the absorbance was read at 570 nm^20."}, "[2]": {"assay": "Preliminary acute toxicity assay", "details": "21 days observation", "description": "Normal mice were treated with 21a or 35a by oral route at 500 mg/kg/day for 5 consecutive days, following by 21 days of post-treatment observation. […] Detailed data for their toxicology and safety pharmacology studies will be carried out in the near future.\nFemale nu/nu mice (5 weeks old) were P.O. with vehicle (propylene glycol, 0.1 ml) or high dose of 21a (250 and 500 mg/kg) and 35a (500 mg/kg) for 5 days followed by observation of behavior and lethargy for 21 days."}, "[3]": {"tested_on": "MDA-MB-231 Xenograft", "experimental": "Female nu/nu mice (5 weeks old) were from National Laboratory Animal Center, Taipei, Taiwan. […] MDA-MB-231 breast cancer cells (5×10^6 cells per mouse) were suspended in 0.1 ml of Matrigel solution (50% (v/v) Matrigel in PBS) and inoculated into the mammary fat pads of the mice. […] Compounds was administered P.O. once every day for 32 days. Tumor size and mouse body weight were measured once every 4 days, and tumor volume (mm3) was calculated using the equation: length×(width)^2×0.5. At the end of experiments, mice were sacrificed and tumor nodules were dissected and weighed."}}}
{"smiles": "COc1cc(/C=C/C(=O)/C=C(O)/C=C/c2ccc(OC(=O)C(C)(CO)CO)c(OC)c2)ccc1OC(=O)C(C)(CO)CO", "note": "[Compound 21a, ((1E,3Z,6E)-3-Hydroxy-5-oxohepta-1,3,6-triene-1,7-diyl)bis(2-methoxy-4,1-phenylene) bis(3-hydroxy-2-(hydroxymethyl)-2-methylpropenoate)]", "values": [{"measurement": "IC50", "setting": "[1]", "value": "3.97 ± 0.27", "unit": "µM"}, {"measurement": "behavior and death at end of experiment", "setting": "[2]; P.O. 21a 250 and 500 mg/kg, 35a 500 mg/kg for 5 days", "value": "no behavior alternation and death"}, {"measurement": "body weight and behavior change", "setting": "[2]; oral 500 mg/kg/day for 5 consecutive days, vs untreated control", "value": "no significant difference"}, {"measurement": "tumor weight smaller than that of the control group", "setting": "[3]; 21a PO combined with Doxorubicin IP 1 mg/kg/day", "value": 80, "unit": "%"}, {"measurement": "reduction of MDA-MB-231 tumor weight compared with control group", "setting": "[3]; 21a alone, PO (50 mg/kg/day)", "value": 60, "unit": "%"}, {"measurement": "effect of combined use on antitumor activity of Doxorubicin", "setting": "[3]; 21a with Doxorubicin", "value": "enhance the antitumor activity of Doxorubicin"}]}
